Results: US11000033B2, “Ketone or oxime compound, and herbicide” (NISSAN CHEMICAL CORPORATION, priority 2014, dated 2021)

Legend:
Type in all cases: in vivo
corn = assay: Test Example 4: effect on crop by soil treatment (symbol c); settings: for c: corn, effect on crop grade: application herbicide amount 320 g/ha
How it was run: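 The test used sterilized diluvial soil. Seed was set down in spots and overlaid with about 1.5 cm of soil before growth in a greenhouse kept at 25° C. to 30° C.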

[1] = test system: Echinochloa crus-galli var. crus-galli; assay: Test Example 5: herbicidal effect by foliage application, plastic box (symbol H); settings: 320 g/ha, 3 weeks after application
How it was run: (§1)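 Sowing in sterilized diluvial soil, 14 days' greenhouse growth at 25° C. to 30° C., then uniform small-sprayer foliar application of aqueous emulsion dilution; plants scored three weeks afterwards.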

wheat = assay: Test Example 4: effect on crop by soil treatment (symbol e); settings: for e: wheat, effect on crop grade: application herbicide amount 320 g/ha
How it was run: (§2)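 Crop seeds, among them rice, wheat, beet and rapeseed, were sown in sterilized diluvial soil and covered with about 1.5 cm of soil. Boxes were kept in a greenhouse at 25° C. to 30° C. for plant growth.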

Apera spica-venti [2] = assay: Test Example 4: herbicidal effect by soil treatment (symbol L)
How it was run: (§3)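 Seeds were sown in sterilized diluvial soil, covered with about 1.5 cm of soil, and the soil surface was sprayed with a water-diluted emulsion of the compound at a predetermined rate. Plants grew in a greenhouse at 25° C. to 30° C.; effects were scored visually 3 weeks after application.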

Amaranthus retroflexus = assay: Test Example 5: herbicidal effect by foliage application, plastic box (symbol N); settings: 320 g/ha, 3 weeks after application
How it was run: as §1

Lolium multiflorum Lam. = assay: Test Example 5: herbicidal effect by foliage application, plastic box (symbol K); settings: 320 g/ha, 3 weeks after application
How it was run: as §1

beet = assay: Test Example 5: effect on crop by foliage application, plastic box (symbol f); settings: 320 g/ha, 3 weeks after application
How it was run: (§4)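 Crop seed is sown alongside grass and broadleaf weed species in spots in sterilized diluvial soil, then covered to a depth of about 1.5 cm. Plants grow in a greenhouse kept at 25° C. to 30° C.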

soybean = assay: Test Example 4: effect on crop by soil treatment (symbol d); settings: for d: soybean, effect on crop grade: application herbicide amount 320 g/ha
How it was run: as §2

Apera spica-venti [3] = assay: Test Example 5: herbicidal effect by foliage application, plastic box (symbol L); settings: 320 g/ha, 3 weeks after application
How it was run: as §1

rapeseed = assay: Test Example 5: effect on crop by foliage application, plastic box (symbol g); settings: 320 g/ha, 3 weeks after application
How it was run: as §4

Stellaria media = assay: Test Example 4: herbicidal effect by soil treatment (symbol P)
How it was run: as §3

Scirpus juncoides = assay: Test Example 2: herbicidal activity, application during weed generation in submerged conditions (symbol B); settings: Table 23; application herbicide amount 320 g/ha; grade 0-5 by criteria of Test Example 1
How it was run: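 Weeds emerging under flooded conditions were treated with compound formulated as an emulsion and diluted with water to the intended herbicide amount, poured onto the surface of 4 cm standing water. Seeds had been co-sown in alluvial soil; plants grew at 25° C. to 30° C. and were assessed after 3 weeks.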

Avena fatua = assay: Test Example 5: herbicidal effect by foliage application, plastic box (symbol I); settings: 320 g/ha, 3 weeks after application
How it was run: as §1

[4] = test system: Echinochloa crus-galli var. crus-galli; assay: Test Example 3: herbicidal effect by foliage application, Wagner pot (symbol H); settings: application herbicide amount 320 g/ha
How it was run: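 Alluvial soil was flooded to a depth of 0.1–0.5 cm, seeded with the weeds and rice, and kept in a greenhouse at 25–30 °C. After 14 days of growth, the foliage received a small-sprayer application of emulsion diluted to the intended rate; injury was rated at 3 weeks.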

[5] = application herbicide amount 320 g/ha

Row | SMILES | c: corn, effect on crop grade (corn) | H: Echinochloa crus-galli var. crus-galli, herbicidal effect grade [1] | e: wheat, effect on crop grade (wheat) | L: Apera spica-venti, herbicidal effect grade (Apera spica-venti [2]; [5]) | N: Amaranthus retroflexus, herbicidal effect grade (Amaranthus retroflexus) | K: Lolium multiflorum Lam., herbicidal effect grade (Lolium multiflorum Lam.) | f: beet, effect on crop grade (beet) | d: soybean, effect on crop grade (soybean) | L: Apera spica-venti, herbicidal effect grade (Apera spica-venti [3]) | g: rapeseed, effect on crop grade (rapeseed) | P: Stellaria media, herbicidal effect grade (Stellaria media; [5]) | Herbicidal effect grade, B: Scirpus juncoides (Scirpus juncoides) | I: Avena fatua, herbicidal effect grade (Avena fatua) | herbicidal effect on H (Echinochloa crus-galli var. crus-galli), grade 0-5 [4] | c: corn, effect grade on crop (corn; 320 g/ha) | e: wheat, effect grade on crop (wheat; 320 g/ha) | L: Apera spica-venti, herbicidal effect grade (Apera spica-venti [2]; 320 g/ha) | d: soybean, effect grade on crop (soybean; 320 g/ha) | P: Stellaria media, herbicidal effect grade (Stellaria media; 320 g/ha)
1 | CC#Cc1cc(C)c(C2=C(O)CC(CC(C)=NOC)C2=O)c(C)c1 (mixture of isomers) [6-009] | 5 (Herbicidal ratio of 90% or more (almost completely withered)) | 5 (Herbicidal ratio of 90% or more (almost completely withered)) | 5 (Herbicidal ratio of 90% or more (almost completely withered)) | 5 (Herbicidal ratio of 90% or more (almost completely withered)) | 0 (Herbicidal ratio of 5% or lower (almost no effect)) | 5 (Herbicidal ratio of 90% or more (almost completely withered)) | 2 (Herbicidal ratio of 20% or higher and lower than 40%) | 0 (Herbicidal ratio of 5% or lower (almost no effect)) | 5 (Herbicidal ratio of 90% or more (almost completely withered)) | 4 (Herbicidal ratio of 70% or higher and lower than 90%) | 4 (Herbicidal ratio of 70% or higher and lower than 90%) | 0 (Herbicidal ratio of 5% or lower (almost no effect)) | 4 (Herbicidal ratio of 70% or higher and lower than 90%) | 5 (Herbicidal ratio of 90% or more (almost completely withered)) |  |  |  |  | 
2 | CON=C(C)CC1CC(O)=C(c2c(C)cc(C#CC3CC3)cc2C)C1=O (mixture of isomers) [6-010] | 4 (Herbicidal ratio of 70% or higher and lower than 90%) | 5 (Herbicidal ratio of 90% or more (almost completely withered)) | 4 (Herbicidal ratio of 70% or higher and lower than 90%) | 5 (Herbicidal ratio of 90% or more (almost completely withered)) | 0 (Herbicidal ratio of 5% or lower (almost no effect)) | 4 (Herbicidal ratio of 70% or higher and lower than 90%) | 0 (Herbicidal ratio of 5% or lower (almost no effect)) | 0 (Herbicidal ratio of 5% or lower (almost no effect)) | 5 (Herbicidal ratio of 90% or more (almost completely withered)) | 0 (Herbicidal ratio of 5% or lower (almost no effect)) | 0 (Herbicidal ratio of 5% or lower (almost no effect)) | 3 (Herbicidal ratio of 40% or higher and lower than 70%) | 3 (Herbicidal ratio of 40% or higher and lower than 70%) | 5 (Herbicidal ratio of 90% or more (almost completely withered)) |  |  |  |  | 
3 | COC(=O)C(C(C)=O)C1CC(O)=C(c2c(C)cc(C)cc2C)C1=O (stereo not drawn) [2-003] |  | 5 (Herbicidal ratio of 90% or more (almost completely withered)) |  |  | 0 (Herbicidal ratio of 5% or lower (almost no effect)) | 5 (Herbicidal ratio of 90% or more (almost completely withered)) | 0 (Herbicidal ratio of 5% or lower (almost no effect)) |  | 4 (Herbicidal ratio of 70% or higher and lower than 90%) | 3 (Herbicidal ratio of 40% or higher and lower than 70%) |  | 0 (Herbicidal ratio of 5% or lower (almost no effect)) | 5 (Herbicidal ratio of 90% or more (almost completely withered)) | 5 (Herbicidal ratio of 90% or more (almost completely withered)) | 0 (Herbicidal ratio of 5% or lower (almost no effect)) | 0 (Herbicidal ratio of 5% or lower (almost no effect)) | 5 (Herbicidal ratio of 90% or more (almost completely withered)) | 0 (Herbicidal ratio of 5% or lower (almost no effect)) | 0 (Herbicidal ratio of 5% or lower (almost no effect))
4 | Cc1cc(C)c(C2=C(O)CC(CC(=O)Cc3ccccc3)C2=O)c(C)c1 (stereo not drawn) [2-015] | 0 (Herbicidal ratio of 5% or lower (almost no effect)) | 5 (Herbicidal ratio of 90% or more (almost completely withered)) | 0 (Herbicidal ratio of 5% or lower (almost no effect)) | 3 (Herbicidal ratio of 40% or higher and lower than 70%) | 0 (Herbicidal ratio of 5% or lower (almost no effect)) | 5 (Herbicidal ratio of 90% or more (almost completely withered)) | 0 (Herbicidal ratio of 5% or lower (almost no effect)) | 0 (Herbicidal ratio of 5% or lower (almost no effect)) | 3 (Herbicidal ratio of 40% or higher and lower than 70%) | 4 (Herbicidal ratio of 70% or higher and lower than 90%) | 0 (Herbicidal ratio of 5% or lower (almost no effect)) | 0 (Herbicidal ratio of 5% or lower (almost no effect)) | 4 (Herbicidal ratio of 70% or higher and lower than 90%) | 1 (Herbicidal ratio of 5% or higher and lower than 20%) |  |  |  |  | 
5 | CC(=O)CC1CC(OC(=O)C(C)(C)C)=C(c2c(C)cc(C)cc2C)C1=O (stereo not drawn) [2-018] | 2 (Herbicidal ratio of 20% or higher and lower than 40%) | 1 (Herbicidal ratio of 5% or higher and lower than 20%) | 0 (Herbicidal ratio of 5% or lower (almost no effect)) | 2 (Herbicidal ratio of 20% or higher and lower than 40%) | 0 (Herbicidal ratio of 5% or lower (almost no effect)) | 4 (Herbicidal ratio of 70% or higher and lower than 90%) | 0 (Herbicidal ratio of 5% or lower (almost no effect)) | 0 (Herbicidal ratio of 5% or lower (almost no effect)) | 1 (Herbicidal ratio of 5% or higher and lower than 20%) | 0 (Herbicidal ratio of 5% or lower (almost no effect)) | 0 (Herbicidal ratio of 5% or lower (almost no effect)) | 0 (Herbicidal ratio of 5% or lower (almost no effect)) | 0 (Herbicidal ratio of 5% or lower (almost no effect)) | 5 (Herbicidal ratio of 90% or more (almost completely withered)) |  |  |  |  | 
6 | CCc1cc(Br)cc(C)c1C1=C(O)CC(C(C(=O)OC)C(C)=NOC)C1=O (stereo not drawn) [6-002] | 0 (Herbicidal ratio of 5% or lower (almost no effect)) | 5 (Herbicidal ratio of 90% or more (almost completely withered)) | 0 (Herbicidal ratio of 5% or lower (almost no effect)) | 4 (Herbicidal ratio of 70% or higher and lower than 90%) | 0 (Herbicidal ratio of 5% or lower (almost no effect)) | 5 (Herbicidal ratio of 90% or more (almost completely withered)) | 0 (Herbicidal ratio of 5% or lower (almost no effect)) | 0 (Herbicidal ratio of 5% or lower (almost no effect)) | 5 (Herbicidal ratio of 90% or more (almost completely withered)) | 0 (Herbicidal ratio of 5% or lower (almost no effect)) | 0 (Herbicidal ratio of 5% or lower (almost no effect)) | 0 (Herbicidal ratio of 5% or lower (almost no effect)) | 5 (Herbicidal ratio of 90% or more (almost completely withered)) | 4 (Herbicidal ratio of 70% or higher and lower than 90%) |  |  |  |  | 
